Results reported in patent EP0785211A1, “New substituted 19-nor-pregnane derivatives” (LABORATOIRE THERAMEX, priority 1996, dated 1997).
Like-named read-outs stand apart in the source and are kept apart here. Marks after values point to notes of the source that are not given here.

Assays:
[1] = test system: uterus of estrogen-primed immature female rabbits; test: Clauberg-McPhail test by oral administration (endometrial transformation, "dentelle"); format: in vivo, rabbit; details: for Relative activity: relative to nomegestrol acetate = 100%; for ED50: total dose giving mean McPhail grade equal to 2, maximal administered dose 0.75 mg
Description: The progestative activity of the compounds of formula (I) can be evaluated in two specific experimental models : the affinity for the progesterone receptor (PR) in vitro, and the endometrial tranformation of the rabbit uterus in vivo.
One specific pharmacological test has been standardized in vivo for the detection and quantitation of pseudogestagenic activity since the mid-30's : it is based on the property of the uterus of estrogen-primed immature female rabbits to respond to very slight amounts of progestin by a typical endometrial transformation into a densely packed and interlaced epithelial network called "dentelle". The original test schedule, which includes 6 days of estrogen priming (total subcutaneous dose of 30 µg/rabbit of estradiol benzoate) followed by 5 days of progestative treatment, was designed as early as 1930 by C. Clauberg, Zentr. Gynäkol. 1930, 54 : 2757-2770. The semi-quantitative scale used to grade the intensity of the microscopical appearance of the "dentelle" was set up by M.K. McPhail, J. Physiol (London), 1934, 83, 145-156. This overall Clauberg-McPhail procedure has been extensively used to screen steroids for putative progestative activity in vivo and is still part of the basic hormonal profile of any new progestin such as norgestimate (A. Phillips et al., Contraception, 1987, 36, 181-192) or desogestrel (J. Van der Vies et al.,Arzneim. Forsch./Drug Res. 1983, 33, 231-236).
The progestative potency is inversely related to the dose needed to induce a half-maximal stimulation of the "dentelle", i.e. to record a mean McPhail grade equal to 2. This ED50 is deduced for the dose-response curve and expressed in total dose/rabbit/5 days. All compounds were tested for activity only following oral administration.

[2] = biological target: T1, human T47-D cell progesterone receptor (Homo sapiens, UniProt P06401); test: Relative binding affinity to human T47-D cell progesterone receptor (competition against [3H]-ORG 2058); details: for RBA: relative binding affinity, nomegestrol acetate as reference = 100%
T1 construct: Human PR are readily available in high amounts from the T47-D cell line in culture; endogenous in cells; host or cells: T47-D human breast cancer cell line
T1 sequence (P06401 1-933): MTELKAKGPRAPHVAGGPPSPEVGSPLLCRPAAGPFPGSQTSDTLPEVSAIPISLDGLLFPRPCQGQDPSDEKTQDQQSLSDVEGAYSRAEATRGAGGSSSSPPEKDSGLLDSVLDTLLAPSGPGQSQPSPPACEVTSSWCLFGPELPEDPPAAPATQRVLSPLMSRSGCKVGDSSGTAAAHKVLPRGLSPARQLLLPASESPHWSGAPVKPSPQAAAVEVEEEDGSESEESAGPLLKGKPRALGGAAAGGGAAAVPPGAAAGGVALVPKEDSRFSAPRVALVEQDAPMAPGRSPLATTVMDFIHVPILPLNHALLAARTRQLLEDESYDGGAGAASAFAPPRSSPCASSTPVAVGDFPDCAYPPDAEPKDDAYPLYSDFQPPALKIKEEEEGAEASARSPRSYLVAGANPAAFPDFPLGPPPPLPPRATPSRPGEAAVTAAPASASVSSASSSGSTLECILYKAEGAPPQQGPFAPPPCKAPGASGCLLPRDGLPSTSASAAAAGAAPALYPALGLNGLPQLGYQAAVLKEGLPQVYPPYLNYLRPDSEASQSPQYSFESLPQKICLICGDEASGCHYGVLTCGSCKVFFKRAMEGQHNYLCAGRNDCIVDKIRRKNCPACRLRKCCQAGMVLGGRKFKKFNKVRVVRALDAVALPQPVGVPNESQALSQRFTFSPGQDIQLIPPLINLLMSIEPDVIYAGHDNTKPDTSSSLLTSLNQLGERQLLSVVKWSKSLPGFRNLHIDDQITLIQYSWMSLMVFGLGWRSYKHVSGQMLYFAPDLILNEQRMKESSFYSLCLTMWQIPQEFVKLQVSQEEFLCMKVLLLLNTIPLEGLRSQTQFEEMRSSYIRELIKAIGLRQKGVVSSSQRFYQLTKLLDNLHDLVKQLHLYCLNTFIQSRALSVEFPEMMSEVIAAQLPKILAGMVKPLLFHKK
Description: Relative binding affinities (RBA) for the human T47-D cell PR are determined as previously described (J. Botella, et al., J. Steroid Biochem. Molec. Biol., 1994, 50 : 41-47) using [^3H]-ORG 2058 as the labelled specific ligand (G. Fleischmann et al., Biochim. Biophys. Acta, 1978, 540 : 500-517) and nomegestrol acetate as the non-radioactive reference progestin. Competitive incubations were performed against 2 nM of [^3H]-ORG 2058 for 3 hours at 4°C with six different concentrations of non-labelled steroid, chosen between 4 and 256 nM following a 1/2^n dilution scheme. Displacement curves were fitted for each experiment, and the concentration inhibiting 50% of the specific binding of [^3H]-ORG 2058 was calculated for each curve (IC50).

[3] = test system: immature castrated male rats; test: Residual androgenic activity: hypertrophy of ventral prostate and seminal vesicles after 10 daily administrations; format: in vivo, rat; details: for Seminal Vesicle / Ventral Prostate: mean ± s.e.m. of 8 animals; for androgenic potential (activity on the growth of male accessory sex organs): result in words, up to 20 mg/animal/day
Description: The residual androgenic potential is an important feature to evaluate for any new progestin, because it is highly predictive of androgenic side-effects in women. One pharmacological model of androgenic activity has been standardized to screen steroids or related compounds in immature castrated male rats, using the hypertrophy of the ventral prostate and seminal vesicles as the endpoint, following 10 daily administrations (R.I. Dorfman, in Methods in Hormone Research, volume 2, LONDON, Academic Press, 1962 : 275-313; A.G. Hilgar et D.J. Hummel, Androgenic and Myogenic Endocrine Bioassay Data, edited by the U.S. Department of Health, Education and Welfare, […].C., 1964).
Medroxyprogesterone acetate is a 6α-methylpregnene derivative which, besides its main progestative activity, is well-known for its weak androgenic properties (M. Tausk et J. de Visser, In International Encyclopedia of Pharmacology and Therapeutics, Section 48 : Progesterone, Progestational Drugs and Antifertility Agents, volume II, OXFORD, Pergamon Press, 1972 : 35-216); it was therefore chosen as a reference compound in the testing for residual androgenic activity of test examples according to the invention.
The compounds of examples 2 and 7 were tested for residual androgenic properties in the immature castrated male rat model by oral administration (PO), in comparison with medroxyprogesterone acetate, in two different experiments (ventral prostate and seminal vesical hypertrophy), as described above; testosterone was used as a standard androgenic agent by subcutaneous injection (SC).

[4] = Table 3 experiment, SC, 0,05 mg/animal/day
[5] = Table 4 experiment, SC, 0,05 mg/animal/day

| SMILES | Relative activity [1] [%] | ED50 [1] | IC50 [2] [nM] | RBA [2] [%] | other results |
| --- | --- | --- | --- | --- | --- |
| CC(=O)O[C@]1(C(C)=O)C[C@@H](C)[C@H]2[C@@H]3C=C(C)C4=CC(=O)CC[C@@H]4[C@H]3CC[C@@]21C [Example 1, 17α-acetoxy-6,15β-dimethyl-3,20-dioxo-19-nor-pregna-4,6-diene] | < 18 | > 0.750 mg/rabbit/5 days | 38 ± 10.3 | 43 |  |
| CC(=O)O[C@]1(C(C)=O)C[C@@H](C)[C@H]2[C@@H]3C[C@H](C)C4=CC(=O)CC[C@@H]4[C@H]3CC[C@@]21C [Example 2, 17α-acetoxy-6α,15β-dimethyl-3,20-dioxo-19-nor-pregna-4-ene] | 165 | 0.080 mg/rabbit/5 days | 28.8 ± 5.6 | 57 | Seminal Vesicle ([3]; Table 3 experiment, PO, 20 mg/animal/day, castrated controls 10.4 ± 0.4): 12.1 ± 0.7 ns mg; Ventral Prostate ([3]; Table 3 experiment, PO, 20 mg/animal/day, castrated controls 14.6 ± 1.4): 13.0 ± 1.1 ns mg; androgenic potential (activity on the growth of male accessory sex organs) ([3]; PO): totally devoid of any activity on the growth of male accessory sex organs |
| CC(=O)O[C@]1(C(C)=O)[C@H]2C[C@H]2[C@H]2[C@@H]3C=C(C)C4=CC(=O)CC[C@@H]4[C@H]3CC[C@@]21C [Example 6, 17α-acetoxy-6-methyl-15β,16β-methylene-3,20-dioxo-19-nor-pregna-4,6-diene] | < 18 | > 0.750 mg/rabbit/5 days | 21.1 ± 6 | 78 |  |
| CC(=O)O[C@]1(C(C)=O)[C@H]2C[C@H]2[C@H]2[C@@H]3C[C@H](C)C4=CC(=O)CC[C@@H]4[C@H]3CC[C@@]21C [Example 7, 17α-acetoxy-6α-methyl-15β,16β-methylene-3,20-dioxo-19-nor-pregna-4-ene] | 54 | 0.245 mg/rabbit/5 days | 19.7 ± 3 | 83 | Ventral Prostate ([3]; Table 4 experiment, PO, 20 mg/animal/day, castrated controls 12.0 ± 0.9): 16.5 ± 0.9 mg; Seminal Vesicle ([3]; Table 4 experiment, PO, 20 mg/animal/day, castrated controls 12.3 ± 0.7): 13.9 ± 0.8 ns mg; androgenic potential (activity on the growth of male accessory sex organs) ([3]; PO): very limited androgenic potential |
| CCO[C@]1(C(C)=O)[C@H]2C[C@H]2[C@H]2[C@@H]3C[C@H](C)C4=CC(=O)CC[C@@H]4[C@H]3CC[C@@]21C [Example 8, 17α-ethoxy-15β,16β-methylene-6α-methyl-3,20-dioxo-19-nor-pregna-4-ene] | 99 | 0.133 mg/rabbit/5 days |  | 78 | IC50 ([2]; against 2 nM [3H]-ORG 2058, 3 hours at 4°C, mean ± s.e.m.): 21.1 ± 6 nM |
| CCO[C@]1(C(C)=O)[C@H]2C[C@H]2[C@H]2[C@@H]3C=C(C)C4=CC(=O)CC[C@@H]4[C@H]3CC[C@@]21C [Example 9, 17α-ethoxy-15β,16β-methylene-6-methyl-20-oxo-19-nor-pregna-4,6-diene] |  |  | 32.3 ± 5.3 | 51 |  |
| CC(=O)OC1(C(C)=O)C2CC2C2C3C(C)C(C)C4=CC(=O)CCC4C3CCC21C (stereo not drawn) [Example 10, 17α-acetoxy-6α,7α-dimethyl-15β,16β-methylene-3,20-dioxo-19-nor-pregna-4-ene] | 22 | 0.600 mg/rabbit/5 days |  |  |  |
| CC(=O)O[C@]1(C(C)=O)CC[C@H]2[C@@H]3[C@H](C)[C@H](C)C4=CC(=O)CC[C@@H]4[C@H]3CC[C@@]21C [Example 11, 17α-acetoxy-6α,7α-dimethyl-3,20-dioxo-19-nor-pregna-4-ene] | 132 | 0.100 mg/rabbit/5 days | 25.5 ± 5.3 | 64 |  |
| CC(=O)O[C@]1(C(C)=O)CC[C@H]2[C@@H]3C=C(C)C4=CC(=O)CC[C@@H]4[C@H]3CC[C@@]21C [Nomegestrol acetate, reference compound] | 100 | 0.132 ± 0.013^(a) (0.108/0.150/0.138) mg/rabbit/5 days |  | 100 | IC50 ([2]; against 2 nM [3H]-ORG 2058, 3 hours at 4°C, mean ± s.e.m., read-out: IC50): 16.4 ± 1.3 nM |
| C[C@]12CC[C@H]3[C@@H](CCC4=CC(=O)CC[C@@]43C)[C@@H]1CC[C@@H]2O [Testosterone, reference compound] |  |  |  |  | Seminal Vesicle [3, 4]: 85.9 ± 6.8 mg; Ventral Prostate [3, 4]: 85.1 ± 5.9 mg; Seminal Vesicle [3, 5]: 90.3 ± 6.3 mg; Ventral Prostate [3, 5]: 90.4 ± 4.4 mg |
